Measured values published in US20220040129A1, “TREATMENT OF HYPERAMMONEMIA IN PATIENTS WITH RENAL INSUFFICIENCY” (RECORDATI S.p.A., priority 2019, published 2022).
Read-outs that look alike come from different tables or passages of the source.

Test: CARIV-A-001 Part A: single ascending IV doses over 20 minutes in healthy subjects
Type: in vivo, human
Conditions: both sexes, human, plasma, iv
Description: This study was conducted in healthy male or female volunteers, at a single site to assess the safety and PK profile of an IV formulation of Carbaglu and to determine the absolute bioavailability of the current marketed oral formulation of Carbaglu.
The levels of CGA in plasma and urine were analysed using a fully validated method, which included LC-MS/MS analysis. The PK data were analysed based on a non-compartmental model. A model-based approach was implemented for the characterization of the PK properties of the IV formulation in order to estimate the level of PK exposure after different doses administered with different duration of infusion. […] The PK parameters were determined using SAS (version 9.3), and modelling of the PK data was performed using NONMEM (version 7.3, ICON Solutions). PART A: Mono-Centre, Randomized, Successive Groups, Double-Blind, Placebo-Controlled Study in Healthy Male and Female Subjects
Each cohort included a minimum of 3 and maximum of 5 subjects of each of the two genders.
Three loading doses of CGA over 20 minutes were tested by IV administration, 3.5 mg/kg, 5.0 mg/kg and 7.5 mg/kg. For each of these three doses, 6 subjects were administered CGA and 2 received the placebo.
Plasma concentrations of CGA were measured at 18 timepoints, including a sample preceding the start of the administration, and then between 10 minutes and 48 hours following the initiation of the IV infusion.
The PK analysis of Carbaglu was conducted by using standard non-compartmental approach.

## NC(=O)N[C@@H](CCC(=O)O)C(=O)O [carglumic acid, N-carbamoyl-L-glutamic acid]
3.5 mg/kg, IV over 20 minutes, 3.5 mg/kg, read-out: T1/2, Median
  half-life: 21.1 h
3.5 mg/kg, IV over 20 minutes, 3.5 mg/kg, read-out: T1/2, Range
  half-life: 6.6 to 36.1 h
3.5 mg/kg, IV over 20 minutes, 3.5 mg/kg, read-out: Volume of Distribution (Vd), Mean
  Vd: 9.28 L/kg
3.5 mg/kg, IV over 20 minutes, 3.5 mg/kg, read-out: Volume of Distribution (Vd), Median
  Vd: 8.75 L/kg
3.5 mg/kg, IV over 20 minutes, 3.5 mg/kg, read-out: Volume of Distribution (Vd), Range
  Vd: 3.26 to 15.5 L/kg
5 mg/kg, IV over 20 minutes, 5.0 mg/kg, read-out: AUC24h, Mean
  AUC(0-t): 14800 ng·h/mL
5 mg/kg, IV over 20 minutes, 5.0 mg/kg, read-out: AUC24h, Median
  AUC(0-t): 14900 ng·h/mL
5 mg/kg, IV over 20 minutes, 5.0 mg/kg, read-out: AUC24h, Range
  AUC(0-t): 11100 to 19300 ng·h/mL
5 mg/kg, IV over 20 minutes, 5.0 mg/kg, read-out: AUCinf, Mean
  AUC(0-inf): 16100 ng·h/mL
5 mg/kg, IV over 20 minutes, 5.0 mg/kg, read-out: AUCinf, Median
  AUC(0-inf): 16600 ng·h/mL
5 mg/kg, IV over 20 minutes, 5.0 mg/kg, read-out: AUCinf, Range
  AUC(0-inf): 12300 to 20000 ng·h/mL
5 mg/kg, IV over 20 minutes, 5.0 mg/kg, read-out: AUClast-timepoint, Mean
  AUC(0-t): 15300 ng·h/mL
5 mg/kg, IV over 20 minutes, 5.0 mg/kg, read-out: AUClast-timepoint, Median
  AUC(0-t): 15600 ng·h/mL
5 mg/kg, IV over 20 minutes, 5.0 mg/kg, read-out: AUClast-timepoint, Range
  AUC(0-t): 11500 to 19300 ng·h/mL
5 mg/kg, IV over 20 minutes, 5.0 mg/kg, read-out: Clearance (Cl), Mean
  clearance: 5.33 mL/min/kg
5 mg/kg, IV over 20 minutes, 5.0 mg/kg, read-out: Clearance (Cl), Median
  clearance: 5 mL/min/kg
5 mg/kg, IV over 20 minutes, 5.0 mg/kg, read-out: Clearance (Cl), Range
  clearance: 4.17 to 6.83 mL/min/kg
5 mg/kg, IV over 20 minutes, 5.0 mg/kg, read-out: Cmax, Mean
  Cmax: 15000 ng/mL
5 mg/kg, IV over 20 minutes, 5.0 mg/kg, read-out: Cmax, Median
  Cmax: 15600 ng/mL
5 mg/kg, IV over 20 minutes, 5.0 mg/kg, read-out: Cmax, Range
  Cmax: 8420 to 19100 ng/mL
5 mg/kg, IV over 20 minutes, 5.0 mg/kg, read-out: T1/2, Mean
  half-life: 21.6 h
5 mg/kg, IV over 20 minutes, 5.0 mg/kg, read-out: T1/2, Median
  half-life: 21.4 h
5 mg/kg, IV over 20 minutes, 5.0 mg/kg, read-out: T1/2, Range
  half-life: 12.8 to 29.3 h
5 mg/kg, IV over 20 minutes, 5.0 mg/kg, read-out: Volume of Distribution (Vd), Mean
  Vd: 9.94 L/kg
5 mg/kg, IV over 20 minutes, 5.0 mg/kg, read-out: Volume of Distribution (Vd), Median
  Vd: 10.2 L/kg
5 mg/kg, IV over 20 minutes, 5.0 mg/kg, read-out: Volume of Distribution (Vd), Range
  Vd: 4.62 to 12.8 L/kg
7.5 mg/kg, IV over 20 minutes, 7.5 mg/kg, read-out: AUC24h, Mean
  AUC(0-t): 21600 ng·h/mL
7.5 mg/kg, IV over 20 minutes, 7.5 mg/kg, read-out: AUC24h, Median
  AUC(0-t): 20700 ng·h/mL
7.5 mg/kg, IV over 20 minutes, 7.5 mg/kg, read-out: AUC24h, Range
  AUC(0-t): 19200 to 26900 ng·h/mL
7.5 mg/kg, IV over 20 minutes, 7.5 mg/kg, read-out: AUCinf, Mean
  AUC(0-inf): 23900 ng·h/mL
7.5 mg/kg, IV over 20 minutes, 7.5 mg/kg, read-out: AUCinf, Median
  AUC(0-inf): 23200 ng·h/mL
7.5 mg/kg, IV over 20 minutes, 7.5 mg/kg, read-out: AUCinf, Range
  AUC(0-inf): 20200 to 29100 ng·h/mL
7.5 mg/kg, IV over 20 minutes, 7.5 mg/kg, read-out: AUClast-timepoint, Mean
  AUC(0-t): 22600 ng·h/mL
7.5 mg/kg, IV over 20 minutes, 7.5 mg/kg, read-out: AUClast-timepoint, Median
  AUC(0-t): 22100 ng·h/mL
7.5 mg/kg, IV over 20 minutes, 7.5 mg/kg, read-out: AUClast-timepoint, Range
  AUC(0-t): 19600 to 27800 ng·h/mL
7.5 mg/kg, IV over 20 minutes, 7.5 mg/kg, read-out: Clearance (Cl), Mean
  clearance: 5.33 mL/min/kg
7.5 mg/kg, IV over 20 minutes, 7.5 mg/kg, read-out: Clearance (Cl), Median
  clearance: 5.33 mL/min/kg
7.5 mg/kg, IV over 20 minutes, 7.5 mg/kg, read-out: Clearance (Cl), Range
  clearance: 4.33 to 6.17 mL/min/kg
7.5 mg/kg, IV over 20 minutes, 7.5 mg/kg, read-out: Cmax, Mean
  Cmax: 22900 ng/mL
7.5 mg/kg, IV over 20 minutes, 7.5 mg/kg, read-out: Cmax, Median
  Cmax: 23200 ng/mL
7.5 mg/kg, IV over 20 minutes, 7.5 mg/kg, read-out: T1/2, Mean
  half-life: 24.8 h
7.5 mg/kg, IV over 20 minutes, 7.5 mg/kg, read-out: T1/2, Median
  half-life: 25.5 h
7.5 mg/kg, IV over 20 minutes, 7.5 mg/kg, read-out: T1/2, Range
  half-life: 15.3 to 35.4 h
7.5 mg/kg, IV over 20 minutes, 7.5 mg/kg, read-out: Volume of Distribution (Vd), Mean
  Vd: 11.2 L/kg
7.5 mg/kg, IV over 20 minutes, 7.5 mg/kg, read-out: Volume of Distribution (Vd), Median
  Vd: 10.8 L/kg
7.5 mg/kg, IV over 20 minutes, 7.5 mg/kg, read-out: Volume of Distribution (Vd), Range
  Vd: 7.02 to 17.5 L/kg
IV over 20 minutes, across dose groups 3.5-7.5 mg/kg, read-out: Half-life, mean value (converted)
  half-life: 22 h
IV over 20 minutes, each cohort, read-out: Half-life, range of cohort means
  half-life: 20.6 to 24.8 h
IV over 20 minutes, each cohort, read-out: Volume of distribution (Vd), range of cohort means
  Vd: 9.3 to 11.2 L/kg
IV over 20 minutes, in each cohort, read-out: Total body clearance, mean value (converted)
  clearance: 5.33 mL/min/kg
IV over 20 minutes, read-out: Vss, range of cohort means
  Vd: 2.21 to 2.39 L/kg
After IV administration, overall analysis on the three groups, read-out: Volume of distribution, median
  Vd: 10.2 L/kg
After IV administration, read-out: Terminal half-life, median (converted)
  half-life: ~22 h
After IV administration, read-out: Terminal half-life, range
  half-life: 7 to 36 h
After IV administration, read-out: Total clearance, median
  clearance: 354 mL/min
After IV administration, read-out: Total clearance, range
  clearance: 241 to 502 mL/min
